Data: PubChem BioAssay (NCI)
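Protocol summary: plate cells (96-well), add compound at 5 concentrations, incubate 48 h, interpolate endpoints linearly. GI50 = concentration required for 50% inhibition of growth. At the TGI there is no net growth.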

Legend:
Test in all cases: DTP human tumour cell line panel, 48 h
LOX IMVI melanoma = tested on: LOX IMVI melanoma
MOLT-4 leukemia = tested on: MOLT-4 leukemia
SF-295 CNS = tested on: SF-295 CNS
ACHN renal = tested on: ACHN renal
RPMI-8226 leukemia = tested on: RPMI-8226 leukemia
HL-60(TB) leukemia = tested on: HL-60(TB) leukemia
SF-268 CNS = tested on: SF-268 CNS
OVCAR-8 ovarian = tested on: OVCAR-8 ovarian
NCI-H460 lung = tested on: NCI-H460 lung
KM12 colon = tested on: KM12 colon

| Compound | GI50 (LOX IMVI melanoma) [µM] | TGI (LOX IMVI melanoma) [µM] | GI50 (MOLT-4 leukemia) [µM] | TGI (MOLT-4 leukemia) [µM] | GI50 (SF-295 CNS) [µM] | TGI (SF-295 CNS) [µM] | GI50 (ACHN renal) [µM] | TGI (ACHN renal) [µM] | GI50 (RPMI-8226 leukemia) [µM] | TGI (RPMI-8226 leukemia) [µM] | GI50 (HL-60(TB) leukemia) [µM] | TGI (HL-60(TB) leukemia) [µM] | GI50 (SF-268 CNS) [µM] | TGI (SF-268 CNS) [µM] | GI50 (OVCAR-8 ovarian) [µM] | TGI (OVCAR-8 ovarian) [µM] | GI50 (NCI-H460 lung) [µM] | TGI (NCI-H460 lung) [µM] | GI50 (KM12 colon) [µM] | TGI (KM12 colon) [µM] |
| --- | --- | --- | --- | --- | --- | --- | --- | --- | --- | --- | --- | --- | --- | --- | --- | --- | --- | --- | --- | --- |
| Cc1nc(N)sc1-c1ccnc(Nc2ccc(N3CCOCC3)cc2)n1 | 0.907 | > 100 | 0.497 | > 56.1 | 1.2 | 74.4 | 0.8 | > 100 | 1.66 | > 38.3 | 1.99 | 6.08 | 1.54 | 50.7 | 2.78 | > 100 | 0.495 | > 43.9 | 1.59 | > 100 |
| NC(N)=NCCN=C(N)N |  | > 100 |  | > 100 |  | > 100 |  | > 100 |  | > 100 |  | > 100 |  | > 100 |  | > 100 |  | > 100 |  | > 100 |
| O=[N+]([O-])c1ccc(C=C2C(Cl)=C(Cl)C(Cl)=C2Cl)cc1 | 2 | 4.3 | 3.07 | > 100 | 3.47 | 76.6 |  |  | 1.84 | 5.16 |  |  | 2.01 | 4.4 | 2.16 | 5.28 | 3.62 | > 100 |  |  |
| Cc1ccc2c(n1)C(=O)c1[nH]c3ccccc3c1C2=O | 1.01 | 24.8 | 3.25 | 18.9 | 0.761 | 2.05 | 2.1 | 18.6 | 2.25 | 12.3 | 2.67 | 9.43 | 3.82 | > 100 | 2.61 | > 100 | 0.337 | 1.63 | 3.1 | 19.6 |
| NC(Cc1cccc([N+](=O)[O-])c1)C(=O)O (centres undefined) |  | > 100 |  | > 100 |  | > 100 |  | > 100 |  | > 100 |  | > 100 |  | > 100 |  | > 100 |  | > 100 |  | > 100 |
| COc1ccc(C2CC(c3cccc(Nc4ccncc4)c3)=NN2c2cc(Cl)cc(Cl)c2)cc1 (centres undefined) | 1.62 | 2.97 | 2.04 | 4.97 | 1.73 | 3.14 | 1.7 | 3.08 |  |  | 2.17 | 5.12 | 2.2 | 5.62 |  |  | 1.86 | 3.45 | 1.77 | 3.3 |
| CCC[CH2][Ge]([CH2]CCC)([CH2]CCC)[O]C(=O)CC(=O)c1ccccc1 | 0.313 | 1.72 | 0.457 | 18 |  |  | 2.67 | 16.8 | 0.959 | > 100 | 0.138 | 11.5 | 4.57 | 21.6 | 1.65 | 18.3 | 0.325 | 12.4 | 0.883 | 16 |
| NCCCNc1nc2ccccc2c2c(=O)c3cc(OC(F)(F)F)ccc3sc12 |  |  |  |  |  |  | 1.6 | 2.96 |  |  | 1.84 | 3.59 |  |  | 2.01 | 4.77 | 1.11 | 2.52 |  |  |
| NNC(N)Nc1ccccc1 (centres undefined) |  |  |  | > 100 |  | > 100 |  | > 100 |  |  |  | > 100 |  | > 100 |  | > 100 |  | > 100 |  | > 100 |
| NC(CCCCP(=O)(O)O)C(=O)O (centres undefined) |  | > 100 |  | > 100 |  | > 100 |  | > 100 |  | > 100 |  | > 100 |  | > 100 |  | > 100 |  | > 100 |  | > 100 |
| CC1CC=CC(O)C1 (centres undefined) |  | > 100 |  | > 100 |  | > 100 |  |  |  | > 100 |  | > 100 |  | > 100 |  | > 100 |  | > 100 |  | > 100 |
| O=C(OC(=O)n1ccc2ccccc21)n1ccc2ccccc21 |  | > 100 |  | > 100 |  | > 100 |  |  |  | > 100 |  | > 100 |  | > 100 |  | > 100 |  | > 100 |  | > 100 |
| O=NN(CCCl)C(=O)NC1CCSc2ccccc21 (centres undefined) |  | > 100 |  | 99.1 |  | > 100 |  |  |  | > 100 |  | 48.7 |  | > 100 |  | > 100 |  | > 100 |  | > 100 |
| C[C@]12C=CC(=O)C=C1CC[C@H]1[C@@H]3C[C@@H](O)[C@](O)(C(=O)CO)[C@@]3(C)C[C@H](O)[C@@]12F |  | > 100 |  | > 100 |  | > 100 |  | > 100 |  | > 100 |  | > 100 |  | > 100 |  | > 100 |  | > 100 |  | > 100 |
| COc1ccccc1C1C(C(=O)O)=C(CO)Oc2cc3c(cc21)OCO3 (centres undefined) |  | > 100 |  | > 100 |  | > 100 |  | > 100 |  | > 100 |  | > 100 |  | > 100 |  | > 100 |  | > 100 |  |  |
| Cc1ccc(S(=O)(=O)Oc2cc(-c3ccccc3)nc3ccccc23)cc1 |  | > 78.5 |  | > 100 |  | 13.1 |  |  |  | 7.71 |  | 6.88 |  | > 100 |  | > 77.6 |  | 13.7 |  | > 43.5 |
| CC(=O)Oc1cccc2c(/C=N/NC(N)=S)ncc(C)c12 |  | 8.98 |  | > 62.8 |  | 14.4 |  | 2.7 |  | 24.5 |  | > 100 |  | 17.8 |  | > 34.9 |  | 7.81 |  | 15.5 |
